Results: US6482814B1, “Biocidal composition and its use” (Avecia Limited, priority 1998, dated 2002)

Key:
[1] = test system: Pseudomonas aeruginosa; assay: Determination of FIC (10x10 matrix, isobologram); format: cell-based; conditions: for concentration in the optimal composition: component of the combination BBIT + ZHMT; for Optimal FIC Concentration: component of the combination BBIT + ZO
Excerpt: (§1) The composition of the present invention has antimicrobial properties and has been found particularly effective against deteriogens for plastics materials, especially in soil burial applications. […] The FIC is the ratio of the amount of each component in the composition relative to its Minimum Inhibitory Concentration (MIC) when used alone. […] When the sum of the FIC values is below one, the mixture is synergistic and when the sum of the FIC values is greater than one, the mixture is antagonistic. The FIC values are preferably determined by constructing an isobologram wherein each component in a matrix array is varied stepwise from a concentration in excess of the MIC down to zero ppm.
(§2) A matrix was constructed in a 10×10 array in microtitre wells wherein the concentration of each chemical was varied stepwise by serial dilution from a concentration of twice the MIC down to zero. As each microtitre plate contains only 96 wells the combination of the two compounds making up the extreme concentrations (highest and lowest) were omitted. Each mixture (100 μl) was added to the plate so that the total volume was maintained at 200 μl. By transferring 100 μl from each well to the adjacent well containing 100 μl nutrient the concentration of the chemical was reduced from twice the MIC to zero in a stepwise manner.
(§3) The presence or absence of growth was determined visually after incubation. The plates containing bacteria were incubated for 16-24 hours at 37° C. and the plates containing fungi were incubated for 40-72 hours at 25° C. From the matrix an isobologram was created and the FIC for each chemical of the composition calculated. The FIC is the ratio of the concentration of chemical which inhibits growth when applied as a combination of chemicals relative to the MIC for that chemical when applied alone.
(§4) The FIC values for the combination of N-n-butyl-1,2-benzisothiazolin-3-one (BBIT) and the 2:1 zinc complex of 3-hydroxy-4-methylthiazol-2(3H)-thione against a bacterium and a fungus are recorded in Tables 2 and 3, respectively.
(§5) The FIC values for N-n-butyl-1,2-benzisothiazolin-3-one and the 2:1 zinc complex of 1-hydroxypyridine-2-thione were determined in similar manner to that described in Example 1.

[2] = test system: Aspergillus niger; assay: Determination of FIC (10x10 matrix, isobologram); format: cell-based; conditions: for concentration in the optimal composition: component of the combination BBIT + ZHMT; for Optimal FIC Concentration: component of the combination BBIT + ZO
Excerpt: as §1, §2, §3, §4, §5

[3] = test system: Alternaria alternata; assay: Determination of FIC (10x10 matrix, isobologram); format: cell-based; conditions: component of the combination BBIT + ZO
Excerpt: as §1
A matrix was constructed in a 10×10 array in microtitre wells wherein the concentration of each chemical was varied stepwise by serial dilution from a concentration of twice the MIC down to zero. As each microtitre plate contains only 96 wells the combination of the two compounds making up the extreme concentrations (highest and lowest) were omitted. […]
The presence or absence of growth was determined visually after incubation. […] From the matrix an isobologram was created and the FIC for each chemical of the composition calculated. […]
as §5

[4] = test system: mixed inoculum of Aureobasidium pullulans, Fusarium enicillium funicularum, Scopulariopsis brevicaulis and Streptoverticillium waksmanii; assay: Soil burial of plasticised PVC strips, weight loss; conditions: PVC strip, 3000 ppm
Protocol: Polvinylchioride sheets were prepared by callendaring the following mixture at 160° C.
100 parts Polyvinylchloride (Evipol SH65/20 ex EVC)
25 parts Dioctylphthalate (ex BP Chemicals)
25 parts Dioctyladipate (ex BP Chemicals)
2 parts Mixed Ca/Zn salt Lankromark LN138 as stabiliser (ex Lankro Chem)
3 parts Lankroflex ED6 as stabiliser/plasticiser (ex Lankro Chem)
5 parts Calcium stearate (ex Aldrich)
0.2 parts Stearic acid (ex Aldrich)
Sheets were fabricated with and without a 1:1 mixture of N-n-butyl-1,2-benzisothiazolin 3-one (BBIT) and the 2:1 zinc complex of 1-hydroxypyridine-2-thione (ZO). […]
Strips of the PVC (8 parts, 12.5×5 cm) were weighed to 4 decimal places, folded and buried in potting compost (John Innes No 2) in a plastic humidity chamber. The compost was sprayed with a mixed inoculum of Aureobasidium pullulans, Fusarium enicillium funicularum, Scopulariopsis brevicaulis and Streptoverticillium waksmanii and incubated at 25° C. The PVC strips were examined at 4 weeks intervals when they were cleaned, dried and weighed. The weight loss is recorded in Table 5 below.

[5] = test system: Pseudomonas aeruginosa; assay: Determination of MIC (microtitre doubling dilution), bacteria; format: cell-based; conditions: chemical alone; visual growth after 24 hours at 37° C.
Protocol: (§6) Bacteria were grown to stationary phase (18 hours) in nutrient broth to give approximately 10^9 colony forming units per ml (CFU/ml). A 0.1% (v/v) inoculum was used to seed fresh medium and 100 μl was then added to each well of a microtitre plate, except for the first well which contained 200 μl. By using a doubling dilution technique, the concentration of the chemical under investigation was varied in each well along the ordinate axis. The presence or absence of bacterial growth was determined by visual inspection after 24 hours incubation at 37° C.

[6] = test system: Alternaria alternata; assay: Determination of MIC (microtitre doubling dilution), fungi; format: cell-based; conditions: chemical alone; visual growth after 48 hours at 25° C.
Protocol: as §6
(§7) The presence or absence of fungal growth was determined by visual inspection after incubation for 48 hours at 25° C.

[7] = test system: Aureobasidium pullulans; assay: as above; format: cell-based; conditions: chemical alone; visual growth after 48 hours at 25° C.
Protocol: as §6, §7

[8] = test system: Aspergillus niger; assay: as above; format: cell-based; conditions: chemical alone; visual growth after 48 hours at 25° C.
Protocol: as §6, §7

## CCCCn1sc2ccccc2c1=O [BBIT, N-n-butyl-1,2-benzisothiazolin-3-one]
[1]
  concentration in the optimal composition: 111 ppm
  Optimal FIC Concentration: 111 ppm
[2]
  concentration in the optimal composition: 17.4 ppm
  Optimal FIC Concentration: 5.3 ppm
[3]
  Optimal FIC Concentration: 22 ppm
[4]; 0 weeks
  Weight Loss: 0%
[4]; 4 weeks
  Weight Loss: 1.2%
[4]; 8 weeks
  Weight Loss: 2.8%
[4]; 12 weeks
  Weight Loss: 5.6%
[4]; 16 weeks
  Weight Loss: 8.1%
[5]
  MIC: 444 ppm
[6]
  MIC: 67 ppm
[7]
  MIC: 3 ppm
[8]
  MIC: 44.5 ppm

## Cc1csc(=S)n1[O-].Cc1csc(=S)n1[O-].[Zn+2] [ZHMT, 2:1 zinc complex of 3-hydroxy-4-methylthiazol-2(3H)-thione]
[1]
  concentration in the optimal composition: 10.6 ppm
[2]
  concentration in the optimal composition: 5.9 ppm
[5]
  MIC: 16 ppm
[8]
  MIC: 16 ppm

## [O-]n1ccccc1=S.[O-]n1ccccc1=S.[Zn+2] [ZO, 2:1 zinc complex of 1-hydroxypyridine-2-thione]
[1]
  Optimal FIC Concentration: 16.4 ppm
[2]
  Optimal FIC Concentration: 8.3 ppm
[3]
  Optimal FIC Concentration: 22 ppm
[4]; 0 weeks
  Weight Loss: 0%
[4]; 4 weeks
  Weight Loss: 0.3%
[4]; 8 weeks
  Weight Loss: 0.8%
[4]; 12 weeks
  Weight Loss: 1.5%
[4]; 16 weeks
  Weight Loss: 2.3%
[5]
  MIC: 33.5 ppm
[6]
  MIC: 55 ppm
[7]
  MIC: 1.5 ppm
[8]
  MIC: 11 ppm
